Where “and” joins values, the source holds several entries; their conditions need not be identical. Identical values can stand only once. Peptide text beside a SMILES is read from it.
Tests used:
[1] = target: T1, recombinant p24 (viral capsid protein) (Human immunodeficiency virus type 1 group M subtype B, UniProt P04591); test: dialysis-based binding assay with 14C-GPG-NH2; set-up: species or system HIV-1
T1 construct: AIDS program, NCIB (gift)
Method: (§1) To determine whether the peptide agents listed in Table 1 bound to the viral capsid protein p24, an in vitro binding assay was performed. As described previously, a dialysis-based binding assay was conducted using a dialysis membrane with a pore size of less than 10 kD. (Slide-A-Lyzer, Pierce). Fifty microliters of a 10 μM stock of the recombinant proteins p24, gp120 (gifts from the AIDS program, NCIB) and BSA (Sigma) were introduced into separate dialysis membranes and the proteins were dialyzed at 4° C. for 2 days against a 500 ml solution composed of 150 mM NaCl and 50 mM Tris-HCl, pH 7.4 buffer, and 27.5 μM of ^14C-GPG-NH2 (Amersham Ltd. UK). Subsequently, ten or five microliter aliquots of the dialyzed p24, gp 120, and BSA were removed and mixed with 3 ml of ReadySafe (Beckman) in a scintillation vial. The C^14 was then detected by scintillation counting.
(§2) In Table 2, the results from a representative dialysis-based binding assay are provided. […] The amount of radioactive GPG-NH2 associated with p24 was 7.5 times greater than that present in the buffer.

recombinant gp120 = target: T2, recombinant gp120 (Human immunodeficiency virus type 1 group M subtype B, UniProt P03375); test: dialysis-based binding assay with 14C-GPG-NH2
T2 construct: recombinant proteins p24, gp120 (gifts from the AIDS program, NCIB); AIDS program, NCIB (gift)
Method: To determine whether the peptide agents listed in Table 1 bound to the viral capsid protein p24, an in vitro binding assay was performed. As described previously, a dialysis-based binding assay was conducted using a dialysis membrane with a pore size of less than 10 kD. (Slide-A-Lyzer, Pierce). […] Subsequently, ten or five microliter aliquots of the dialyzed p24, gp 120, and BSA were removed and mixed with 3 ml of ReadySafe (Beckman) in a scintillation vial. The C^14 was then detected by scintillation counting.

BSA = target: T3, BSA (Bos taurus, UniProt P02769); test: dialysis-based binding assay with 14C-GPG-NH2
T3 construct: purchased Sigma
Method: as §1, §2

HIV-1 SF-2 virus = test: electron microscopy of HIV-1 particles from infected HUT78 cells; format: cell-based; conditions: 1 μM or 10 μM added 3, 5 or 7 days post infection; cells fixed day 14
Method: Evidence that peptide agents inhibit or prevent viral capsid protein polymerization and, thus, proper nucleocapsid assembly was obtained by performing electron microscopy on HIV-1 particles that were contacted with a modified small peptide. In this set of experiments, HUT78 cells were infected with HIV-1 SF-2 virus at 300TCID50 for 1 hr at 37° C. Subsequently, the infected cells were washed and pelleted 3 times. […] GPG-NH2 was then added into the cell cultures 3, 5 or 7 days post infection at concentration of 1 μm or 10 μM. A control sample was administered 0.5 μM Ritonavir (a protease inhibitor). The cells were cultured until day 14, at which point, the cells were fixed in 2.5% glutaraldehyde by conventional means. The fixed cells were then post-fixed in 1% OSO4 and were dehydrated, embedded with epoxy resins, and the blocks were allowed to polymerize. Epon sections of virus infected cells were made approximately 60-80 nm thin in order to accommodate the width of the nucleocapsid. The sections were mounted to grids stained with 1.0% uranyl acetate and were analyzed in a Zeiss CEM 902 microscope at an accelerating voltage of 80 kV. The microscope was equipped with a spectrometer to improve image quality and a liquid nitrogen cooling trap was used to reduce beam damage. The grids having sections of control and GPG-NH2 incubated cells were examined in several blind studies.
(See FIG. 1). […]

HIV-2 = test: viral infection assay in H9 cells, reverse transcriptase (RT) activity in supernatant; format: cell-based; conditions: summary of the experiments in H9 cells
Method: (§3) Next, the ability of peptide agents to inhibit viral infection was evaluated. Accordingly, the peptide agents listed in Table 1 were used in several viral (e.g., HIV-1, HIV-2, and SIV) infection assays. […] Once inhibitory tripeptides were identified, more specific assays were conducted to determine the effect of varying concentrations of the selected tripeptides and combination treatments (e.g., the use of more than one modified tripeptide in combination).
(§4) To monitor the replication of virus, reverse transcriptase (RT) activity in the supernatants was assayed using a commercially available Lenti-RT activity kit. (Cavidi Tech, Uppsala, Sweden). The amount of RT was determined with the aid of a regression line of standards. […] Syncytium formation was also monitored by microscopic examination.
(§5) (Cavidi Tech). The amount of RT was determined with the aid of a regression line of standards.

SIV = test: as above; format: cell-based; conditions: summary of the experiments in H9 cells
Method: as §3, §4, §5

HIV-1 = conditions: summary of Experiments 1-6
Method: as §3

[2] = target: major capsid protein (p24) of HIV-1 (HIV-1) (UniProt P04591)
[3] = target: major capsid protein (p24) of HIV-1 (HIV-1) (UniProt P04591); remark: listed apart in the source
[4] = target: viral capsid protein (p24) of HIV-2 (HIV-2)
[5] = target: viral capsid protein (p24) of SIV (SIV)
[6] = target: major capsid protein (p24) of HIV-1 (HIV-1) (UniProt P04591); remark: listed apart in the source
[7] = 27.5 μM 14C-GPG-NH2, dialysis 4° C. 2 days, dialysis buffer 1.816
[8] = radioactivity relative to dialysis buffer

NCC(=O)N1CCC[C@H]1C(=O)NCC(N)=O [GPG-NH2, glycyl-prolyl-glycine amide] (H-Gly-Pro-Gly-NH2)
μCi/ml, sample p24 [1, 7]: 13.712 μCi/ml
times buffer, sample p24 [1, 8]: 7.5 times buffer and 7.551 times buffer
μCi/ml, sample gp120 (recombinant gp120; [7]): 1.745 μCi/ml
radioactive GPG-NH2 associated with gp120 over the amount in the dialysis buffer (recombinant gp120; in words): no appreciable amount
times buffer, sample gp120 (recombinant gp120; [8]): 0.961 times buffer
μCi/ml, sample BSA (BSA; [7]): 1.674 μCi/ml
radioactive GPG-NH2 associated with BSA over the amount in the dialysis buffer (BSA; in words): no appreciable amount
times buffer, sample BSA (BSA; [8]): 0.922 times buffer
capsid/nucleocapsid morphology of HIV-1 particles (HIV-1 SF-2 virus): discernable capsid structures that are distinct from the Ritonavir-treated particles
effect on HIV-2 infection, in words (HIV-2): inhibit or prevent HIV-2 and SIV infection
effect on SIV infection, in words (SIV): inhibit or prevent HIV-2 and SIV infection
effect on HIV-1 infection, in words (HIV-1): inhibited and/or prevented HIV-1 infection

GPG-NH2 + GKG-NH2 + CQG-NH2 (pool or library)
p24 in the supernatants of infected H9 cells, Day 14 HIV-1, reduction (%) [2]: 100%

Gly-Pro-Gly-NH2 (peptide)
reverse transcriptase (RT) activity in the supernatants, Day 10 RT (OD) [3]: 0.074 OD
reverse transcriptase (RT) activity in the supernatants, Day 10 RT (OD) [4]: 0.145 OD
reverse transcriptase (RT) activity in the supernatants, Day 10 RT (OD) [5]: 0.103 OD
p24 production of infected HUT78 cells (HIV-1 p24 ELISA), Day 7 HIV-1, reduction (%), peptide at 100 µM [6]: 97%

— patent US20030050242A1, “Protein polymerization inhibitors and methods of use” (priority 1999, published 2003)
